Data: US8927577B2, “Quinolinyl glucagon receptor modulators” (Pfizer Inc., priority 2011, dated 2015)

How the values were obtained:
human glucagon receptor [1] = molecular target: T1, human glucagon receptor (Homo sapiens (Human), UniProt P47871); test: Glucagon cAMP Assay; type: cell-based; settings: CHOK1 cells stably transfected with the human glucagon receptor; 100 pM glucagon challenge; Kb from IC50 by modified Cheng-Prusoff equation
Protocol: The Cisbio cAMP detection assay is used to determine the ability of punitive glucagon antagonist to block glucagon induced cAMP production. Potential glucagon antagonists are re-suspended and diluted in 100% DMSO. Prior to use in the Glucagon cAMP assay 100×DMSO compound stocks are diluted 20× with DMEM-F12 media (Invitogen) containing either 0.1% or 4% BSA. 2 uls of 5× compound stocks are spotted into the appropriate wells of low binding white solid bottom 384 well plates (Corning). 2 uls of 5% DMSO or known glucagon antagonist are added to each plate to define the assay window. CHOK1 cells stably transfected with the human glucagon receptor are removed from culture flasks with cell dissociation buffer. Cell pellets are re-suspended, at a concentration of 8.3e^5 cells/ml in DMEM-F12 with or without 4% BSA and 200 uM IBMX. 6 uls of cell suspensions are added to the assay plates. Plates are incubated for 20 min at room temperature prior to the addition of a 100 pM challenge dose of glucagon. On a separate plate glucagon dose response curves are run to determine the EC50 of glucagon. After a 30 min room temperature incubation the reaction is terminated by the addition of lysis buffer containing the cAMP detection reagents. Plates are incubated for an additional 60 min at room temperature prior to being read on the Perkin Elmer fluorescent plate reader. Raw is converted to nM of cAMP produced based on a cAMP standard curve. Converted data is then analyzed using the Pfizer data analysis program. IC50 values are determined from the generated sigmoidal dose response curves. Kb values are the calculated using a modified Cheng-Prusoff equation.

human glucagon receptor [2] = molecular target: T1, human glucagon receptor; test: Human Glucagon SPA Assay; settings: membrane from chem-1 cells stably transfected with the human glucagon receptor; 125 pM [125I]Glucagon-Cex; Ki by Cheng-Prusoff equation; read-out: Binding Ki
Protocol: The Glucagon SPA assay is used to determine the ability of test compounds to block the binding of glucagon-cex to the glucagon receptor. Test compounds are re-suspended and serially diluted in 100% DMSO. 1 ul of test compound at the desired concentrations is spotted into the appropriate wells of 96 well low binding white clear bottom plate (Corning). 1 ul of DMSO is spotted into total binding wells. 1 ul of a known glucagon antagonist at a concentration of 20 uM is added to non specific binding wells. […] All assay ingredients with the exception of test compounds are re-suspended in the following buffer; 50 mM Hepes pH 7.4; 5 mM MgCl2; 1 mM CaCl; 5% glycerol and 0.2% BSA. Following a 6-10 hr incubation at room temperature the amount of hot ligand bound to the cell membranes is determined by reading the plates on a Wallac Trilux radioactive emission detector. Data is analyzed using Pfizer's Data analysis program. IC50 values are then determined from the generated sigmoidal dose response curves. Ki values are calculated using Cheng-Prusoff equation.

T1 sequence (P47871 26-477): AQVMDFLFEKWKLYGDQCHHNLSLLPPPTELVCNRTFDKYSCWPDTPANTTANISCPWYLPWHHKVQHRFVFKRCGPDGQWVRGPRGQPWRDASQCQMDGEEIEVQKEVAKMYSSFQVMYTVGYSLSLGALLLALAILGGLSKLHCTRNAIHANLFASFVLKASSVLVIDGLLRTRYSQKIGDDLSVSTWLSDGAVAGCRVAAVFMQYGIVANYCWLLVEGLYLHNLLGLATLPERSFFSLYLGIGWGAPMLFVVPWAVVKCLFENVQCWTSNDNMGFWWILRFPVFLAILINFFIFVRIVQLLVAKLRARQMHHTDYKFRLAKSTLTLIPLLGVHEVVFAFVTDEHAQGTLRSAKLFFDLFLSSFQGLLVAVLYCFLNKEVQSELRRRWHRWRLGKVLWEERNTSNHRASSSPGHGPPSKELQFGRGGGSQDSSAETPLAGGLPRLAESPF

| Kb (human glucagon receptor [1]) [nM] | Ki (human glucagon receptor [2]) [nM] | Structure (SMILES) |
| --- | --- | --- |
| 23 | 53 | Cc1cc2ccccc2nc1NC(c1ccc(C(=O)NCCC(=O)O)cc1)C1CC(C)(C)C1 (single isomer, unassigned; isomer 1) [Example 32, 3-{4-[(3,3-dimethyl-cyclobutyl)-(3-methyl-quinolin-2-ylamino)-methyl]-benzoylamino}-propionic acid, isomer 1] |
| 1300 | 1240 | Cc1cc2ccccc2nc1NC(CC(C)C)c1ccc(C(=O)NCCC(=O)O)cc1 (single isomer, unassigned; isomer 2) [Example 31, 3-(4-(3-methyl-1-((3-methylquinolin-2-yl)amino)butyl)benzamido)propanoic acid, Isomer 2] |
| 33 | 14 | Cc1cc2cc(F)ccc2nc1NC(c1ccc(C(=O)NCCC(=O)O)cc1)C1CC(C)(C)C1 (single isomer, unassigned; isomer 2) [Example 35, 3-{4-[(3,3-dimethyl-cyclobutyl)-(6-fluoro-3-methyl-quinolin-2-ylamino)-methyl]-benzoylamino}-propionic acid, isomer 2] |
| 110 | 173 | CCC[C@@H](Nc1nc2ccccc2cc1C)c1ccc(C(=O)NCCC(=O)O)cc1 [Example 1, (+)-3-(4-(1-((3-Methylquinolin-2-yl)amino)butyl)benzamido)propanoic acid] |
| 520 | 280 | CCC[C@H](Nc1nc2ccccc2cc1C)c1ccc(C(=O)NCCC(=O)O)cc1 [Example 2, (−)-3-(4-(1-((3-Methylquinolin-2-yl)amino)butyl)benzamido)propanoic acid] |
| 880 | 360 | Cc1nc2ccccc2cc1NC(CC(C)C)c1ccc(C(=O)NCCC(=O)O)cc1 (stereo not shown) [Example 17, (+\−)-3-(4-(3-methyl-1-(2-methylquinolin-3-ylamino)butyl)benzamido)propanoic acid] |
| 100 | 109 | Cc1c(NC(CC(C)C)c2ccc(C(=O)NCCC(=O)O)cc2)cnc2ccccc12 (stereo not shown) [Example 18, (+\−)-3-(4-(3-methyl-1-(4-methylquinolin-3-ylamino)butyl)benzamido)propanoic acid] |
| 250 | 160 | Cc1ccc2ncc(NC(CC(C)C)c3ccc(C(=O)NCCC(=O)O)cc3)cc2c1 (stereo not drawn) [Example 27, N-(4-{3-methyl-1-[(6-methylquinolin-3-yl)amino]butyl}benzoyl)-beta-alanine] |
